Data from patent US9089139B2, “Agri-horticultural pest control compositions comprising 4-(3-butynyl)aminopyrimidine derivatives” (SDS Biotech K. K., priority 2011, dated 2015).

Structure (SMILES) | melting point [°C]
FC(F)(F)c1cccc(Oc2nc(C#CCCNc3ncnc4ccccc34)cs2)c1 [compound 219] | 106 to 108
FC(F)(F)c1ccccc1Oc1nc(C#CCCNc2ncnc3ccccc23)cs1 [compound 218] | 159 to 161
C(#Cc1csc(-c2ccoc2)n1)CCNc1ncnc2sccc12 [compound 78] | 140 to 142
OCc1nc(C#CCCNc2ncnc3sccc23)cs1 [compound 70] | 193
C(#Cc1csc(-c2ccsc2)n1)CCNc1ncnc2sccc12 [compound 80] | 55 to 56
Fc1cccc(F)c1C#CCCNc1ncnc2sccc12 [compound 42] | 179 to 181
Cc1cccc(C#CCCNc2ncnc3sccc23)c1 [compound 18] | 120 to 123
CC(C)(C)[Si](C)(C)C#CCCNc1ncnc2sccc12 | 190 to 192
C(#Cc1csc(-c2ccco2)n1)CCNc1ncnc2sccc12 [compound 77] | 53 to 55
C(#Cc1cscn1)CCNc1ncnc2sccc12 [compound 63] | 174
N#Cc1cccc(Oc2nc(C#CCCNc3ncnc4ccccc34)cs2)c1 [compound 222] | 137 to 139
FC(F)(F)c1ccccc1C#CCCNc1ncnc2cc(Cl)ccc12 [compound 308] | 153 to 154
C(#Cc1ccncc1)CCNc1ncnc2sccc12 [compound 57] | 140 to 141
Fc1cc(C#CCCNc2ncnc3sccc23)cc(F)c1F [compound 43] | 158 to 159
Fc1cccc(Oc2nc(C#CCCNc3ncnc4ccccc34)cs2)c1 [compound 225] | 134 to 136
Clc1ncnc(NCCC#Cc2ccccc2)c1Cl [compound 357] | 122 to 123
FC(F)(F)c1cc(C#CCCNc2ncnc3sccc23)cc(C(F)(F)F)c1 [compound 28] | 163 to 166

Structure (SMILES) | melting point [°C]
O=[N+]([O-])c1ccc(C#CCCNc2ncnc3sccc23)cc1 [compound 40] | 184 to 185
Cc1cc(C)nc(C#CCCNc2ncnc3sccc23)n1 [compound 59] | 112 to 113
Cc1scnc1C#CCCNc1ncnc2sccc12 [compound 65] | 148 to 150
Clc1ncnc(NCCC#Cc2ccccc2)c1Cc1ccccc1 [compound 372] | 157 to 158
FC(F)(F)c1ccc(Oc2nc(C#CCCNc3ncnc4ccccc34)cs2)cc1 [compound 220] | 137 to 139
FC(F)(F)c1ccccc1C#CCC(Nc1ncnc2ccccc12)c1ccccc1 (stereo not shown) [compound 302] | 150 to 152
FC(F)(F)c1cccc(C#CCCNc2ncnc3sccc23)c1 [compound 26] | 123 to 125
Cc1nc(C#CCCNc2ncnc3sccc23)cs1 [compound 66] | 160 to 161
CC(=O)OCc1nc(C#CCCNc2ncnc3sccc23)cs1 [compound 73] | 128 to 129
C(#Cc1ccccc1)CCNc1ncnc2[nH]cnc12 [compound 378] | 207 to 208
C(#Cc1cncs1)CCNc1ncnc2sccc12 [Compound No. 61] | 156 to 158
C(#Cc1cccnc1)CCNc1ncnc2sccc12 [compound 56] | 138 to 140
CC(CC#Cc1cscn1)Nc1ncnc2ccccc12 (stereo not shown) [compound 291] | 142 to 145
C(#Cc1ccccc1)CC(Nc1ncnc2ccccc12)c1ccccc1 (stereo not shown) [Compound No. 301, 4-[(1,4-diphenyl-3-butynyl)amino]quinazoline] | 141 to 143
Clc1cc(NCCC#Cc2ccccc2)ncn1 [compound 358] | 118 to 120
COc1ccc(C#CCCNc2ncnc3sccc23)cc1OC [compound 24] | 182 to 184
C(#Cc1csc(-c2cccnc2)n1)CCNc1ncnc2sccc12 [compound 81] | 175 to 177

Results, then the molecule that gave them:

melting point [°C] | Structure (SMILES)
113 to 114 | CCOC(=O)c1cnc(C#CCCNc2ncnc3ccccc23)s1 [compound 213]
134 to 139 | FC(F)(F)c1ccc(C#CCCNc2ncnc3ccccc23)cn1 [compound 198]
69 to 71 | OCc1ccc(C#CCCNc2ncnc3ccccc23)cc1 [compound 132]
150 to 152 | COc1ccc(Oc2nc(C#CCCNc3ncnc4ccccc34)cs2)cc1 [compound 217]
55 to 57 | N#Cc1ccc(Oc2nc(C#CCCNc3ncnc4ccccc34)cs2)cc1 [compound 223]
164 to 165 | CS(=O)(=O)c1ccc(C#CCCNc2ncnc3ccccc23)cc1 [compound 120]
147 to 148 | Clc1ccc(C#CCCNc2ncnc3ccccc23)cc1Cl [compound 175]
147 to 149 | COc1ccc(Cl)cc1C#CCCNc1ncnc2ccccc12 [compound 179]
198 to 199 | Fc1cc(Cl)ccc1C#CCCNc1ncnc2ccccc12 [compound 164]
139 | C=C(C#CCCNc1ncnc2ccccc12)CO [compound 92]
120 to 122 | C(#Cc1ccccc1)CCNc1ncnc2ccccc12 [compound 96]
92 to 94 | C=C(C)CCc1ccccc1C#CCCNc1ncnc2ccccc12 [compound 105]
183 to 187 | OC(c1ccccc1C#CCCNc1ncnc2ccccc12)C(F)(F)F (stereo not shown) [compound 138]
176 to 177 | Clc1ccc(Cl)c(C#CCCNc2ncnc3ccccc23)c1 [compound 173]
183 to 185 | OCc1ccc(C#CCCNc2ncnc3ccccc23)cn1 [compound 202]
159 to 160 | C(#Cc1ccc2ccccc2c1)CCNc1ncnc2ccccc12 [compound 183]
137 to 138 | CCOC(=O)c1ccc(C#CCCNc2ncnc3ccccc23)cc1 [compound 129]
119 to 120 | CCOc1ccccc1C#CCCNc1ncnc2ccccc12 [compound 118]
121 to 123 | COCc1ccccc1C#CCCNc1ncnc2ccc(I)cc12 [compound 322]
168 to 170 | Clc1ncccc1C#CCCNc1ncnc2ccccc12 [compound 195]
163 to 164 | N#Cc1c(F)cccc1C#CCCNc1ncnc2ccccc12 [compound 165]
141 to 142 | CSc1cccc(C#CCCNc2ncnc3ccccc23)c1 [compound 116]
182 to 183 | Clc1ccc(C#CCCNc2ncnc3ccccc23)c(Cl)c1 [compound 172]
153 to 155 | Clc1cccc(Cl)c1C#CCCNc1ncnc2ccccc12 [compound 174]
163 to 166 | COC(=O)c1cccc(C#CCCNc2ncnc3sccc23)c1 [compound 30]
121 to 125 | COCc1cc(F)c(F)cc1C#CCCNc1ncnc2ccccc12 [compound 146]
182 to 186 | OCc1cnccc1C#CCCNc1ncnc2ccccc12 [compound 201]
139 to 140 | CCOC(=O)c1sc(C#CCCNc2ncnc3ccccc23)nc1C [compound 214]
163 to 165 | C(#Cc1ccc(OC2CCCCO2)cc1)CCNc1ncnc2ccccc12 (stereo not shown) [compound 156]
144 to 145 | FC(F)(F)c1ccc(Cl)c(C#CCCNc2ncnc3ccccc23)c1 [compound 176]
